Laboratory results from the SangsterLogP compilation.

Experiment: method code SF-AS, from DOI: 10.1248/cpb.32.4994, PMID: 6534548

Compound	logP
CC(=O)Oc1cccc(NC(=O)Cc2ccccc2)c1	2.37
CCNc1cccc(NC(=O)Cc2ccccc2)c1	2.59
O=C(Cc1ccccc1)Nc1cccc(Br)c1	3.77
CC(=O)c1cccc(NC(=O)Cc2ccccc2)c1	2.62
CC(=O)N(c1ccccc1)c1ccc(C)cc1	3.05
O=C(Cc1ccccc1)Nc1ccc(O)cc1	1.82
Nc1cccc(NC(=O)Cc2ccccc2)c1	1.59
O=C(Cc1ccccc1)Nc1ccc(F)cc1	2.86
Cc1cccc(NC(=O)Cc2ccccc2)c1	3.14
COc1ccc(NC(=O)Cc2ccccc2)cc1	2.49
O=C(Cc1ccccc1)Nc1cccc([N+](=O)[O-])c1	2.93
O=C(Cc1ccccc1)Nc1cccc(F)c1	3.1
O=C(Cc1ccccc1)Nc1ccc(Cl)cc1	3.54
O=C(Cc1ccccc1)Nc1cccc(Cl)c1	3.61
N#Cc1cccc(NC(=O)Cc2ccccc2)c1	2.75
CS(=O)(=O)Oc1cccc(NC(=O)Cc2ccccc2)c1	2.32
CNc1cccc(NC(=O)Cc2ccccc2)c1	2.31
O=C(Cc1ccccc1)Nc1cccc(I)c1	3.91
CC(=O)c1ccc(NC(=O)Cc2ccccc2)cc1	2.75
COc1cccc(NC(=O)Cc2ccccc2)c1	2.86
O=C(Cc1ccccc1)Nc1cccc(O)c1	2.22

Experiment: method code AS, from DOI: 10.1248/cpb.32.4994, PMID: 6534548

Compound	logP
O=C(Cc1ccccc1)Nc1ccc(Br)cc1	3.7

Experiment: method code SF-AQ, from DOI: 10.1248/cpb.32.4994, PMID: 6534548

Compound	logP
CCc1cccc(N(C(C)=O)c2ccccc2)c1	3.47
